Measured values from the kinase profiling compilation of Christmann-Franck et al. (2016).

Assays:
Assay in all cases: KINOMEscan competition binding
Conditions in all cases: compound 10.0 µM
ACVR2A (human) = ACVR2A (human) (UniProt P27037)
ACVR2B (human) = ACVR2B (human) (UniProt Q13705)
DAPK1 (human) = DAPK1 (human) (UniProt P53355)
DCLK3 (human) = DCLK3 (human) (UniProt Q9C098)
[1] = tested on: EIF2AK4 KD2 (human), Q9P2K8 [S808G]
[2] = target: JAK1 JH2 pseudokinase (human) (UniProt P23458)
MYLK3 (human) = MYLK3 (human) (UniProt Q32MK0)
PIP4K2B (human) = PIP4K2B (human) (UniProt P78356)
STK17A (human) = STK17A (human) (UniProt Q9UEE5)
STK24 (human) = STK24 (human) (UniProt Q9Y6E0)
Chain of STK24 (human) (Q9Y6E0 whole entry, looked up): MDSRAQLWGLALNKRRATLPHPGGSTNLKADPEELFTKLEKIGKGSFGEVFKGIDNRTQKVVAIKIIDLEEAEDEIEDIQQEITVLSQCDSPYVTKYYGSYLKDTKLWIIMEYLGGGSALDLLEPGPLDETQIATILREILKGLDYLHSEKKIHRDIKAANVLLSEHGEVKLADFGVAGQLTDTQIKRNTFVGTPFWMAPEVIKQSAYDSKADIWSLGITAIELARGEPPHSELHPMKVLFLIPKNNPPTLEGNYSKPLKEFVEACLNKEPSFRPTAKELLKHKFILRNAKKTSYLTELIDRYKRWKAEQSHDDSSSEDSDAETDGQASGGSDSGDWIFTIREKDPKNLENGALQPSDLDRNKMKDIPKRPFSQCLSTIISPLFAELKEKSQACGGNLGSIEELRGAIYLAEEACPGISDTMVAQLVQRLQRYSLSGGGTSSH

TGFBR2 (human) = TGFBR2 (human) (UniProt P37173)
Chain of TGFBR2 (human) (P37173 whole entry, looked up): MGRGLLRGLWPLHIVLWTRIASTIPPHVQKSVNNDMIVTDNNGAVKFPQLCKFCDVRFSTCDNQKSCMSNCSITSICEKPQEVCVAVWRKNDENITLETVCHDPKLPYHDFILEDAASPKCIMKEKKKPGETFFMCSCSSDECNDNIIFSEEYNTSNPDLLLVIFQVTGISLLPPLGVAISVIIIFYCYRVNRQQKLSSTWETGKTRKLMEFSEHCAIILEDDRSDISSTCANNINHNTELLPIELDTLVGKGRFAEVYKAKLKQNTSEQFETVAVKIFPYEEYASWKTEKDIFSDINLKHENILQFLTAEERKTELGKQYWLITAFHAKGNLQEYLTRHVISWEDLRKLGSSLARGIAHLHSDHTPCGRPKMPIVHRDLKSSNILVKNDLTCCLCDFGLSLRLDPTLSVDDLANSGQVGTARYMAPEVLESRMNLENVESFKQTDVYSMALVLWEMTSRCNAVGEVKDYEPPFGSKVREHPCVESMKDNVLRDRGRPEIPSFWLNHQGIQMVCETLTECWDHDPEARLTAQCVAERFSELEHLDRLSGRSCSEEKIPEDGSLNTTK

TNK1 (human) = TNK1 (human) (UniProt Q13470)
Chain of TNK1 (human) (Q13470 whole entry, looked up): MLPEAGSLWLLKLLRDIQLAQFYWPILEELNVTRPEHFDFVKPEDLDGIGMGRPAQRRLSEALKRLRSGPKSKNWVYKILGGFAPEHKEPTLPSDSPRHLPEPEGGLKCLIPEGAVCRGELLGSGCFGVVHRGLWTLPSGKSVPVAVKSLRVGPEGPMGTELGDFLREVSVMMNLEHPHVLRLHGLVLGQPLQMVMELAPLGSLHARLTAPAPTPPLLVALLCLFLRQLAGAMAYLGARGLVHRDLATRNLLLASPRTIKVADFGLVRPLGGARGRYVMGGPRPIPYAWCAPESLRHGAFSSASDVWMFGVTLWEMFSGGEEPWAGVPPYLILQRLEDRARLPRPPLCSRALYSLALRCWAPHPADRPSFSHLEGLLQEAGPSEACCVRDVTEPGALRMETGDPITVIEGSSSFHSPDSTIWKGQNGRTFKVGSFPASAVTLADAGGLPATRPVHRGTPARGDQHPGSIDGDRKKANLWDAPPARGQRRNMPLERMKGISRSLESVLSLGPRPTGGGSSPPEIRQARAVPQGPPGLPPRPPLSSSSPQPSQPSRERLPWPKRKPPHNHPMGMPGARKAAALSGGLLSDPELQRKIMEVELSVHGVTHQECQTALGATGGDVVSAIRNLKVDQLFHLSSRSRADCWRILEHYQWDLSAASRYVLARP

ACVR1 (human) = ACVR1 (human) (UniProt Q04771)
AURKC (human) = AURKC (human) (UniProt Q9UQB9)
Chain of AURKC (human) (Q9UQB9 whole entry, looked up): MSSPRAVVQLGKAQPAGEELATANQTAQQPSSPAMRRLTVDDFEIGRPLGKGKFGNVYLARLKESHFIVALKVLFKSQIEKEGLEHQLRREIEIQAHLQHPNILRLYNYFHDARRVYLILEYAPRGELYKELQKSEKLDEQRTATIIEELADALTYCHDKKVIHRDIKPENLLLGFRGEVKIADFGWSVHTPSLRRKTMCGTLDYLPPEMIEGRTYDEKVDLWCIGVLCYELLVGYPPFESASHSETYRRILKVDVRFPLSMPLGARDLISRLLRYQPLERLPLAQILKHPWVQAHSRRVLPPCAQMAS

CAMKK1 (human) = CAMKK1 (human) (UniProt Q8N5S9)
Chain of CAMKK1 (human) (Q8N5S9 whole entry, looked up): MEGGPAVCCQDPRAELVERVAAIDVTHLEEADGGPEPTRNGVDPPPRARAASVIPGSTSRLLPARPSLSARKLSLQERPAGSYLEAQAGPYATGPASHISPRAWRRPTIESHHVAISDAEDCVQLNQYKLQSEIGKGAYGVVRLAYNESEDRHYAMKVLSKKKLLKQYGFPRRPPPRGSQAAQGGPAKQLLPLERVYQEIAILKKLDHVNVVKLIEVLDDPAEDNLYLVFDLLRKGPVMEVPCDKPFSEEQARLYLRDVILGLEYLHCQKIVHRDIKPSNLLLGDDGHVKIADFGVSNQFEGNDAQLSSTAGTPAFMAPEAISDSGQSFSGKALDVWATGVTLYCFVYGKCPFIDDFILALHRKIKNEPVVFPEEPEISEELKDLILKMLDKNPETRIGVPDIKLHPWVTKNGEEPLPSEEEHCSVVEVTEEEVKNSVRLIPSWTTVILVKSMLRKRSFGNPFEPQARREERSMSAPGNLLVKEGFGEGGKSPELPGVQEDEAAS

CDK16 (human) = CDK16 (human) (UniProt Q00536)
CHUK (human) = CHUK (human) (UniProt O15111)
Chain of CHUK (human) (O15111 whole entry, looked up): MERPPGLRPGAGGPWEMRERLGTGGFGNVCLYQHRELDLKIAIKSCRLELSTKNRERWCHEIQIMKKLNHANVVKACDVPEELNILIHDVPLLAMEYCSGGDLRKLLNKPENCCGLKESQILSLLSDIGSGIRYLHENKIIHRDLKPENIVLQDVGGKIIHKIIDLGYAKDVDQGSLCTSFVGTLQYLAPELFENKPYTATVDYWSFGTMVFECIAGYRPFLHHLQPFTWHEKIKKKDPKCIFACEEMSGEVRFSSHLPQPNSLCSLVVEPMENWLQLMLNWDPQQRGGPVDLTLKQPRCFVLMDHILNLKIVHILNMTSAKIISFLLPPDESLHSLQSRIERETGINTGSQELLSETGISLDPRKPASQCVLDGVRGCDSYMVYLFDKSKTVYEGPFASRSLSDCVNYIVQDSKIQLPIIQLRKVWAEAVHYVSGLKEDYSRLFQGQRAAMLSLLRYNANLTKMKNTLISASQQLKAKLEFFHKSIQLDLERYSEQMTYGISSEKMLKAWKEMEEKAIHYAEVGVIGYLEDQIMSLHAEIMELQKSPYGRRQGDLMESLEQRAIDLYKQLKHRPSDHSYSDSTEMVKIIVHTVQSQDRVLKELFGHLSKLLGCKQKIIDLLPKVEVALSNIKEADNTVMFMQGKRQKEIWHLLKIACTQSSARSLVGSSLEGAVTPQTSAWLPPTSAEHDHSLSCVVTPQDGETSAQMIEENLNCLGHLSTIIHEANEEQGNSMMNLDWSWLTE

CLK3 (human) = CLK3 (human) (UniProt P49761)
Chain of CLK3 (human) (P49761 whole entry, looked up): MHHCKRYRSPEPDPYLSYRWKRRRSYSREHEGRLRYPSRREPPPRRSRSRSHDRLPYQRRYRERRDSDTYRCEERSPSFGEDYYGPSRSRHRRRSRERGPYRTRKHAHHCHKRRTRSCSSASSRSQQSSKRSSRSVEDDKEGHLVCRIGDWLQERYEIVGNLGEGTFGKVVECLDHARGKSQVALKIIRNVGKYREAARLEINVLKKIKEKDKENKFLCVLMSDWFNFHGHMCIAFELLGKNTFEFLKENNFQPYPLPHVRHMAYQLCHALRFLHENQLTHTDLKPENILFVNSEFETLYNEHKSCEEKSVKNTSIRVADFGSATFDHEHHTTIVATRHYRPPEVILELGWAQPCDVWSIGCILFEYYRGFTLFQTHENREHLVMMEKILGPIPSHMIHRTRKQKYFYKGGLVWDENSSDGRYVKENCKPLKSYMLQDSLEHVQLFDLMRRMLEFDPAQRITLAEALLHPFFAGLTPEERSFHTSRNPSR

FLT3 (human) = FLT3 (human) (UniProt P36888)
[3] = tested on: FLT3 (human), P36888 [D835H]
[4] = tested on: FLT3 (human), P36888 [K663Q]
[5] = tested on: FLT3 (human), P36888 [N841I]
KIT (human) = KIT (human) (UniProt P10721)
[6] = tested on: KIT (human), P10721 [V559D]
PDGFRB (human) = PDGFRB (human) (UniProt P09619)
PHKG2 (human) = PHKG2 (human) (UniProt P15735)
RIOK1 (human) = RIOK1 (human) (UniProt Q9BRS2)
RIPK4 (human) = RIPK4 (human) (UniProt P57078)
SRPK3 (human) = SRPK3 (human) (UniProt Q9UPE1)
STK16 (human) = STK16 (human) (UniProt O75716)
TAOK3 (human) = TAOK3 (human) (UniProt Q9H2K8)
BMPR1B (human) = BMPR1B (human) (UniProt O00238)
CSNK1G1 (human) = CSNK1G1 (human) (UniProt Q9HCP0)
CSNK1G3 (human) = CSNK1G3 (human) (UniProt Q9Y6M4)
MAP4K4 (human) = MAP4K4 (human) (UniProt O95819)
MINK1 (human) = MINK1 (human) (UniProt Q8N4C8)
NEK2 (human) = NEK2 (human) (UniProt P51955)
RPS6KA5 KD2 (human) = RPS6KA5 KD2 (human) (UniProt O75582)
[7] = target: JAK3 JH1 catalytic (human) (UniProt P52333)
MAP2K4 (human) = MAP2K4 (human) (UniProt P45985)
RIOK2 (human) = RIOK2 (human) (UniProt Q9BVS4)

Chain of ACVR2B (human) (Q13705 whole entry, looked up): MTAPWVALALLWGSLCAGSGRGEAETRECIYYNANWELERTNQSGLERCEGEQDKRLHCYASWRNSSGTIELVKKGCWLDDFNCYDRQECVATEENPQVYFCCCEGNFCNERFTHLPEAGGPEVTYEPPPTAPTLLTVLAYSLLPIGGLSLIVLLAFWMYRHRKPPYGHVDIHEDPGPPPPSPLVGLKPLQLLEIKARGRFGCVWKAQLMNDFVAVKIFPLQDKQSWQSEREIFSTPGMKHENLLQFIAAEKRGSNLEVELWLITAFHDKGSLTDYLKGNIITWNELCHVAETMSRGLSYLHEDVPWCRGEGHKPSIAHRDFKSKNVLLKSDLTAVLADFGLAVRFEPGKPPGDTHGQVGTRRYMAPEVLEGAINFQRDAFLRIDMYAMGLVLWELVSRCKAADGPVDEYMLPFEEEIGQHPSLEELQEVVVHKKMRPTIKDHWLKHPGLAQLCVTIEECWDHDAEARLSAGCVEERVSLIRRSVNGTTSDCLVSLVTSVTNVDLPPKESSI
Chain of DCLK3 (human) (Q9C098 whole entry, looked up): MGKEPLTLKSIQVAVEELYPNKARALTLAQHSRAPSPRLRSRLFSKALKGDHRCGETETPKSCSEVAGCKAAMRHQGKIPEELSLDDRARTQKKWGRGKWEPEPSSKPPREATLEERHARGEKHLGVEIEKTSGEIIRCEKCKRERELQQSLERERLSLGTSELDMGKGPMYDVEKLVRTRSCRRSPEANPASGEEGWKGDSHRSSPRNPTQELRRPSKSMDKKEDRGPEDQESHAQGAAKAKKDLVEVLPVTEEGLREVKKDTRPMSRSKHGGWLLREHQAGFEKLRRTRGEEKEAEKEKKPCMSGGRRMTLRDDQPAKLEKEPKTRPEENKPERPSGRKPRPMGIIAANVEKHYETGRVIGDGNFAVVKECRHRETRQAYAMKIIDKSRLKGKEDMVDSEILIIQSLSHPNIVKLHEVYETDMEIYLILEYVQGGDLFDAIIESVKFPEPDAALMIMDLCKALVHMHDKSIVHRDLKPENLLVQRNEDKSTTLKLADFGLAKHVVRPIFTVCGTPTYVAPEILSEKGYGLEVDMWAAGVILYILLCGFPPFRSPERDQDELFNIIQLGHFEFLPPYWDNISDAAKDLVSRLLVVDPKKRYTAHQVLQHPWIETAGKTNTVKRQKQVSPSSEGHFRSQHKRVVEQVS

kinase still bound, per cent of control (ACVR2A (human))	kinase still bound, per cent of control (ACVR2B (human))	kinase still bound, per cent of control (DAPK1 (human))	kinase still bound, per cent of control (DCLK3 (human))	kinase still bound, per cent of control [1]	kinase still bound, per cent of control [2]	kinase still bound, per cent of control (MYLK3 (human))	kinase still bound, per cent of control (PIP4K2B (human))	kinase still bound, per cent of control (STK17A (human))	kinase still bound, per cent of control (TGFBR2 (human))	kinase still bound, per cent of control (TNK1 (human))	kinase still bound, per cent of control (ACVR1 (human))	kinase still bound, per cent of control (CHUK (human))	kinase still bound, per cent of control [3]	kinase still bound, per cent of control (PDGFRB (human))	kinase still bound, per cent of control (RIOK1 (human))	kinase still bound, per cent of control (SRPK3 (human))	kinase still bound, per cent of control (BMPR1B (human))	kinase still bound, per cent of control (MAP4K4 (human))	kinase still bound, per cent of control (MINK1 (human))	Compound	further results
10%	10%	15%	26%	33%	19%	21%	26%	0.05%	2.4%	31%	–	–	–	–	–	–	–	–	–	N=C1NC(=O)/C(=C/c2ccc(-c3csc4ccccc34)o2)S1	kinase still bound, per cent of control (STK24 (human)): 18%
8.6%	7.6%	5.9%	30%	0.7%	13%	0.55%	2.6%	0.05%	0.85%	14%	0.5%	1.4%	3.3%	5.4%	1.4%	7.2%	–	–	–	N=C1NC(=O)/C(=C/c2ccc(-c3cncc4ccccc34)o2)S1	kinase still bound, per cent of control (AURKC (human)): 0.3%; kinase still bound, per cent of control (CAMKK1 (human)): 3.4%; kinase still bound, per cent of control (CDK16 (human)): 9.8%; kinase still bound, per cent of control (CLK3 (human)): 18%; kinase still bound, per cent of control (FLT3 (human)): 10%; kinase still bound, per cent of control [4]: 8.1%; kinase still bound, per cent of control [5]: 0.95%; kinase still bound, per cent of control (KIT (human)): 10%; kinase still bound, per cent of control [6]: 7.2%; kinase still bound, per cent of control (PHKG2 (human)): 10%; kinase still bound, per cent of control (RIPK4 (human)): 4.7%; kinase still bound, per cent of control (STK16 (human)): 2.6%; kinase still bound, per cent of control (STK24 (human)): 16%; kinase still bound, per cent of control (TAOK3 (human)): 26%
18%	16%	4%	22%	–	–	2.6%	–	2%	12%	–	–	–	23%	10%	27%	–	14%	7.9%	1.3%	CS(=O)(=O)Nc1ccc(-c2ncc(/C=C3\SC(=N)NC3=O)s2)cc1	kinase still bound, per cent of control (CSNK1G1 (human)): 22%; kinase still bound, per cent of control (CSNK1G3 (human)): 8.3%
–	–	2.7%	13%	1.4%	–	–	8.4%	0.35%	33%	–	29%	–	–	–	10%	23%	11%	9%	29%	N=C1NC(=O)/C(=C/c2c[nH]c(=O)c(-c3ccc(N4CCNCC4)nc3)c2)S1	kinase still bound, per cent of control (CLK3 (human)): 29%; kinase still bound, per cent of control [4]: 33%; kinase still bound, per cent of control (NEK2 (human)): 13%; kinase still bound, per cent of control (RPS6KA5 KD2 (human)): 11%
–	25%	9.6%	–	–	8.5%	8.7%	5.5%	0%	5.2%	8.4%	14%	8.4%	7.4%	18%	3.7%	14%	–	25%	33%	O=C1NC(=S)S/C1=C\c1ccc(-c2cncc3ccccc23)o1	kinase still bound, per cent of control (AURKC (human)): 5.2%; kinase still bound, per cent of control (CAMKK1 (human)): 5.6%; kinase still bound, per cent of control (CDK16 (human)): 5.2%; kinase still bound, per cent of control (FLT3 (human)): 16%; kinase still bound, per cent of control [4]: 14%; kinase still bound, per cent of control [5]: 4%; kinase still bound, per cent of control [7]: 21%; kinase still bound, per cent of control (KIT (human)): 21%; kinase still bound, per cent of control [6]: 26%; kinase still bound, per cent of control (MAP2K4 (human)): 20%; kinase still bound, per cent of control (PHKG2 (human)): 8.1%; kinase still bound, per cent of control (RIOK2 (human)): 3.4%; kinase still bound, per cent of control (STK16 (human)): 9.8%; kinase still bound, per cent of control (STK24 (human)): 12%
0.9%	4.2%	–	0.9%	–	–	19%	–	0.45%	1.7%	28%	1.8%	19%	8.7%	7.2%	7.8%	34%	10%	5.5%	4.4%	CS(=O)(=O)Nc1ccc(-c2cncc(/C=C3\SC(=N)NC3=O)c2)cc1	kinase still bound, per cent of control (AURKC (human)): 16%; kinase still bound, per cent of control (CSNK1G1 (human)): 18%; kinase still bound, per cent of control (CSNK1G3 (human)): 1%; kinase still bound, per cent of control [5]: 28%; kinase still bound, per cent of control (KIT (human)): 8.2%; kinase still bound, per cent of control [6]: 6%; kinase still bound, per cent of control (RIOK2 (human)): 23%; kinase still bound, per cent of control (RIPK4 (human)): 5.8%; kinase still bound, per cent of control (TAOK3 (human)): 4.7%
–	–	3.7%	–	16%	–	–	18%	5%	14%	–	–	19%	–	–	7.1%	14%	7.4%	–	–	CSC1=NC(=O)/C(=C/c2c[nH]c(=O)c(-c3ccc(NS(C)(=O)=O)cc3)c2)S1	kinase still bound, per cent of control (CAMKK1 (human)): 25%; kinase still bound, per cent of control (CLK3 (human)): 14%; kinase still bound, per cent of control (MAP2K4 (human)): 10%; kinase still bound, per cent of control (NEK2 (human)): 27%; kinase still bound, per cent of control (RIPK4 (human)): 8.4%; kinase still bound, per cent of control (RPS6KA5 KD2 (human)): 11%; kinase still bound, per cent of control (STK16 (human)): 21%
